ChEMBL document CHEMBL1201862, “PubChem BioAssay data set” (2004)
Calls of active or inactive are those of the source.

What was measured:
[1] = biological target: Bifunctional protein GlmU (Mycobacterium tuberculosis, UniProt P9WMN3); test: Inhibitors of Mycobacterial Glucosamine-1-phosphate acetyl transferase (GlmU). Secondary screen.; parameters: species or system Mycobacterium tuberculosis H37Rv
HeLa = test: HeLa cell cytotoxicity, dose response, cytotoxicity control, 24 h, cherry-picked samples (AID 504726); assay type: functional, cell-based; details: Homo sapiens;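 note: potency for cytotoxicity as loss of luminescence signal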
Salmon testes DNA = test: DNA intercalators displacing acridine orange, dose response, artefact control for KSHV LANA DNA-binding inhibitor project, biochemical, fluorescence polarization, cherry-picked samples, set 2 (AID 504727); parameters: species or system Salmonidae
ORF 73 = ORF 73 (Human herpesvirus 8, UniProt O40947); test: inhibitors of C-LANA binding to LBS DNA, dose response, biochemical, fluorescence polarization, cherry-picked samples (AID 504725); parameters: species or system Human gammaherpesvirus 8;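 note: fluorescence polarization of a labeled DNA duplex reporting LANA DNA binding; potency is for inhibitors that block LANA binding to the DNA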
[2] = biological target: Cyclin-dependent kinase 5/CDK5 activator 1 (Homo sapiens, UniProt Q00535); test: CDK5/p35 kinase inhibitors, dose response, biochemical, cherry-picked samples, set 2 (AID 504545)
[3] = biological target: T1, Endoribonuclease toxin MazF (Escherichia coli K-12, UniProt P0AE70); test: MazF toxin RNase activators, dose response, biochemical, fluorescence, single-stranded RNA substrate, uHTS hits (AID 588481); assay type: functional
T1 sequence (P0AE70 whole entry): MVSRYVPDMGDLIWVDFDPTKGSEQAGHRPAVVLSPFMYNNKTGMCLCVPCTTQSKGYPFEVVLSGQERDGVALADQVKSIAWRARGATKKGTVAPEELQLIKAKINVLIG

[4] = biological target: T1, Endoribonuclease toxin MazF; test: fluorescent RNA oligo signal without MazF, dose response, counter-screen for MazEF activator project, biochemical, fluorescence, single-stranded RNase substrate (AID 588502); assay type: functional
Genome polyprotein = Genome polyprotein (dengue virus type 2, UniProt P29990); test: Dengue-2 NS5 methyltransferase inhibitors, primary screen, biochemical, confirmation dose response (AID 588689); assay type: functional
[5] = biological target: Polyadenylate-binding protein 1 (Homo sapiens, UniProt P11940); test: PABP1 MLLE–PAM2 binding inhibitor potency, dose response, biochemical, fluorescence polarization, FITC-PAM2 peptide (AID 602259); assay type: functional; details: read-out: IC50_Mean
Caspase-6 = Caspase-6 (Homo sapiens, UniProt P55212); test: human caspase-6 inhibitors, dose response, biochemical, VEID-R110 fluorescence, cherry-pick (AID 720632)
[6] = biological target: T2, 1-phosphatidylinositol 4,5-bisphosphate phosphodiesterase beta-3 (Homo sapiens, UniProt Q01970); test: Fluorescence-based biochemical high throughput dose response assay to identify inhibitors of phospholipase C isozymes (PLC-B3).
T2 sequence (Q01970 whole entry): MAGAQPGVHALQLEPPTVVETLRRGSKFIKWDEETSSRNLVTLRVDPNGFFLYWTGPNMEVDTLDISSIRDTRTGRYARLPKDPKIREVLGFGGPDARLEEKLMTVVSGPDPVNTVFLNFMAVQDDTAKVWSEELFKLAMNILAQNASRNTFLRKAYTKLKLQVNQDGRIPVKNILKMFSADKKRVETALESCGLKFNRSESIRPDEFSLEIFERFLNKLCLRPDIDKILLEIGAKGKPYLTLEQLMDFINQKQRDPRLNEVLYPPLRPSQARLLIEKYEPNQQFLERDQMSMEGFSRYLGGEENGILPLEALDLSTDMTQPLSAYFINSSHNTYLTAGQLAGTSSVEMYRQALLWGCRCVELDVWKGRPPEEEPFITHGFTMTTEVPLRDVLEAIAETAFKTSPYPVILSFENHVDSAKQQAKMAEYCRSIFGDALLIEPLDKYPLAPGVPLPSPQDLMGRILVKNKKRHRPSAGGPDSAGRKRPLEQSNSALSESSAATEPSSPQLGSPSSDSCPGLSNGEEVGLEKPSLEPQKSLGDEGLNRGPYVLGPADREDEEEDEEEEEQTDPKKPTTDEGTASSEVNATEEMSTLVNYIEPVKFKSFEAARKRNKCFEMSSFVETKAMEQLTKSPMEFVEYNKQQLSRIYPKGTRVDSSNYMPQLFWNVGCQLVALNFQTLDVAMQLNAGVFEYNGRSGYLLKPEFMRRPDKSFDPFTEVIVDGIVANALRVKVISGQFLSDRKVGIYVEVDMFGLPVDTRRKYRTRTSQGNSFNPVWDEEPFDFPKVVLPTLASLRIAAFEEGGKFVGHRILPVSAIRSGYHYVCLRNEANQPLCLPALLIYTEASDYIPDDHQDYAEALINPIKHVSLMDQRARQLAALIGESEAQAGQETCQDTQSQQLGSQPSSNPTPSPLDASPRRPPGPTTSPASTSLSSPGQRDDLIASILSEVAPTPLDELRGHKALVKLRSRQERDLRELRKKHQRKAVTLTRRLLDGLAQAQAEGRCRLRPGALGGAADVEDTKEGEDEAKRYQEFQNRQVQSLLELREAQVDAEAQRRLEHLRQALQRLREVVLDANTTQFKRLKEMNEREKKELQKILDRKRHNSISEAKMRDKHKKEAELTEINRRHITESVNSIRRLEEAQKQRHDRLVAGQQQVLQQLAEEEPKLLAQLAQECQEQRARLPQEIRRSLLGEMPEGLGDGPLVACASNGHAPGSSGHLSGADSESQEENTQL

Genome polyprotein, sequence (P29990 2492-3391 limits assumed): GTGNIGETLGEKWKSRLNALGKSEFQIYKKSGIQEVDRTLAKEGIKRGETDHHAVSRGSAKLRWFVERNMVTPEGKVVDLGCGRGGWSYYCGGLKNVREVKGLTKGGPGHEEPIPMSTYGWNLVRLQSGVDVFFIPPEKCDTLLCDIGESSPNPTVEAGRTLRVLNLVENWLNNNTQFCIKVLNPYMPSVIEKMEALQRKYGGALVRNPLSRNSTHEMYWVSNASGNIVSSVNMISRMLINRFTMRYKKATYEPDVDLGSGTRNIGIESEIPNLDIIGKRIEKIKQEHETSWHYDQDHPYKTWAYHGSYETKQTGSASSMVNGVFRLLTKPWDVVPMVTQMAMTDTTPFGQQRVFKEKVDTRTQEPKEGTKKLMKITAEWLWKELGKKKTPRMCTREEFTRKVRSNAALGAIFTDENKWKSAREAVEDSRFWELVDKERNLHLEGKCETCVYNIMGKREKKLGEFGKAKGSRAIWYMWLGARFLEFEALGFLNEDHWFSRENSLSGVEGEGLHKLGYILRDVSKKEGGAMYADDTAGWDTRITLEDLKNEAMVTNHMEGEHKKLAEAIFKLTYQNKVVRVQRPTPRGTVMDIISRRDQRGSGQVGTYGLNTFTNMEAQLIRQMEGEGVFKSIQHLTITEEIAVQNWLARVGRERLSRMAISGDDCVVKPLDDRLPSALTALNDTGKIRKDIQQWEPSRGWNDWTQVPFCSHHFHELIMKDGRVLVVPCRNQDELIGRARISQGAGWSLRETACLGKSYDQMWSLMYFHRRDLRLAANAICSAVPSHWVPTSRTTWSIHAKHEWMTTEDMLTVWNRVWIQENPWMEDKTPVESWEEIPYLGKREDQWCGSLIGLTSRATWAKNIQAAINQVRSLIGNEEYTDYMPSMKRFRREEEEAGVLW
Bifunctional protein GlmU, sequence (P9WMN3 whole entry): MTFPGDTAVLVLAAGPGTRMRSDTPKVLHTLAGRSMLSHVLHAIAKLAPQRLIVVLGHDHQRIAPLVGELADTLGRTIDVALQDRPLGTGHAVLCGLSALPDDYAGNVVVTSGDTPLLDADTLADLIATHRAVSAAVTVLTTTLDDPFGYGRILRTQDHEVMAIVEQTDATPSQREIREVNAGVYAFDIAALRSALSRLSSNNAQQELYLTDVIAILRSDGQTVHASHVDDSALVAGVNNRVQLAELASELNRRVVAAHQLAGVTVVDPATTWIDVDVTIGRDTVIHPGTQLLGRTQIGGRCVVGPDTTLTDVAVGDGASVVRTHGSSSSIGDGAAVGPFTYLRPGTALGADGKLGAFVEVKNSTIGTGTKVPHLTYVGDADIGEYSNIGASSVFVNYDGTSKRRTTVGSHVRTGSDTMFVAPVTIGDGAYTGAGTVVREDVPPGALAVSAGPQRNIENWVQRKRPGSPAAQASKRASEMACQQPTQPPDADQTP
Polyadenylate-binding protein 1, sequence (P11940 whole entry): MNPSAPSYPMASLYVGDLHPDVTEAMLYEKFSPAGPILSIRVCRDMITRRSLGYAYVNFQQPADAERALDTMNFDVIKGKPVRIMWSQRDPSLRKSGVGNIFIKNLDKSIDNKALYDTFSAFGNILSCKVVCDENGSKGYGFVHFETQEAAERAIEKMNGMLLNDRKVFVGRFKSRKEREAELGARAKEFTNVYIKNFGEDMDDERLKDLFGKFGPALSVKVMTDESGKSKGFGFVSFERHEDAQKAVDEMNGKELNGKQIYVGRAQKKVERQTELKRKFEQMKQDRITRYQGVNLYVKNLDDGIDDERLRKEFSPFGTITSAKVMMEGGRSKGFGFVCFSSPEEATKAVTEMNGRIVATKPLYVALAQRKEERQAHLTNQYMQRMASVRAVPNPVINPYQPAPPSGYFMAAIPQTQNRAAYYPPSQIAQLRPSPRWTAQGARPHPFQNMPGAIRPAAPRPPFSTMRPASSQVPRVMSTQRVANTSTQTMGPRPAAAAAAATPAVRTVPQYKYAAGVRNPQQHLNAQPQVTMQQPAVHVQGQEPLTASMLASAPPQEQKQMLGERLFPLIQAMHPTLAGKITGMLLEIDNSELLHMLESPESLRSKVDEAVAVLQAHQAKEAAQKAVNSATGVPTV
Cyclin-dependent kinase 5/CDK5 activator 1, sequence (Q00535 whole entry): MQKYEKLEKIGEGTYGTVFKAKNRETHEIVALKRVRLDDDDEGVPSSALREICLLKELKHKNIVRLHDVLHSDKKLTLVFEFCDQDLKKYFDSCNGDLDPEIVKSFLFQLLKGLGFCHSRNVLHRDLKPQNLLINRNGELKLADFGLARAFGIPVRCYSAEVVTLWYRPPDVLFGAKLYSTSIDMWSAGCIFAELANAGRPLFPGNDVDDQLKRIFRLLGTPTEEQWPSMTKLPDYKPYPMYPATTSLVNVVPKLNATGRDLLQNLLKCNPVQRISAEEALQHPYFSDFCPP
Cyclin-dependent kinase 5/CDK5 activator 1, sequence (Q15078 whole entry, further chain): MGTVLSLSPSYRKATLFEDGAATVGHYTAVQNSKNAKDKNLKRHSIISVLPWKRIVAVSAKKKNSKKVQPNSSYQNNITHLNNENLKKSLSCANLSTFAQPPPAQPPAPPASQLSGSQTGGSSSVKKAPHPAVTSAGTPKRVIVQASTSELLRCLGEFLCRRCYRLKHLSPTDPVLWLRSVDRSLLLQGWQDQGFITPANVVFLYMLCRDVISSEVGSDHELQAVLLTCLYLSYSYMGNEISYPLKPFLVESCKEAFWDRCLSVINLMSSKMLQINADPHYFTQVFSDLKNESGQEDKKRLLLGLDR
Caspase-6, sequence (P55212 24-179 limits assumed): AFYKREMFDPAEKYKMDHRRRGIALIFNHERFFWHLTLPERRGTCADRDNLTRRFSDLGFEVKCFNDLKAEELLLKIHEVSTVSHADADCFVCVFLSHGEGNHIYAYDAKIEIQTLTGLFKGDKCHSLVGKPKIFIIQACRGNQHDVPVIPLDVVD
Caspase-6, sequence (P55212 194-293 limits assumed): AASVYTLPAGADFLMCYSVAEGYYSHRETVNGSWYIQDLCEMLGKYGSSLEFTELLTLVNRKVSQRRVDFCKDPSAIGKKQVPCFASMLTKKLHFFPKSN
ORF 73, sequence (O40947 whole entry): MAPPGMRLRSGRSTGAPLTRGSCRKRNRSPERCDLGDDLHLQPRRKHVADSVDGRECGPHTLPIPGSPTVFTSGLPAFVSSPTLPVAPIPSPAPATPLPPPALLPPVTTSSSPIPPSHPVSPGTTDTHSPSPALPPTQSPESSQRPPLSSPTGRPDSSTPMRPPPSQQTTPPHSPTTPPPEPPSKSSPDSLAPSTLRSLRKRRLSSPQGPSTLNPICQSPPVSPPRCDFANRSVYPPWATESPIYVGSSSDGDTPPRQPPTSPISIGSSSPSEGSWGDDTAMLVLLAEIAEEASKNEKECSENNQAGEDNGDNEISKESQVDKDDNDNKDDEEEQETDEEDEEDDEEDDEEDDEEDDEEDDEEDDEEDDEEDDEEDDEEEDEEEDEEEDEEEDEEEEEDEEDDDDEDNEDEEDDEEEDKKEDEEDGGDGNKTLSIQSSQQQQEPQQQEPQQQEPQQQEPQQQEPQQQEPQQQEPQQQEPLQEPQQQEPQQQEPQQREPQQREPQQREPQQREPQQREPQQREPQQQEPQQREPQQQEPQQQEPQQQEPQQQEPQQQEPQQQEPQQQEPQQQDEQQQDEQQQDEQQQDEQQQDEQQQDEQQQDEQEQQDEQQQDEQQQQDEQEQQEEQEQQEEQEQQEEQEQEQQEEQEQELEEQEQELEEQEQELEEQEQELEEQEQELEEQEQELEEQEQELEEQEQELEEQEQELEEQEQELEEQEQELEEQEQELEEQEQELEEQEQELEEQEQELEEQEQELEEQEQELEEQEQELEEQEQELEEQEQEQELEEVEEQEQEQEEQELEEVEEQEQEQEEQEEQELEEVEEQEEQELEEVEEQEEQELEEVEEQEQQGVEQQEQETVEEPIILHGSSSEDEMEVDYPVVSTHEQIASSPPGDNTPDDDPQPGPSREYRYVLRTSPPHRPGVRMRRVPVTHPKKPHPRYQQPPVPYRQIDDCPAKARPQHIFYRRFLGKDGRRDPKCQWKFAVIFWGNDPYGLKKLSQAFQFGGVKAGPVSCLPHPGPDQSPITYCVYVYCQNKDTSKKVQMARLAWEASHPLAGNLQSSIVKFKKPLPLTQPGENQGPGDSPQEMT

O=c1c(O)cccc2cc(O)c(O)c(O)c12 [PURPUROGALLIN]
IC50 [1]: 21.5 µM (active)
AC50 (HeLa): 103 µM (active)
AC50 (Salmon testes DNA): 49.9 µM (active)
AC50 (ORF 73): 25.9 µM (active)
AC50 [2]: 23.2 µM (active)
EC50 [3]: 80.3 µM (inactive)
EC50 [4]: > 99 µM (inactive)
IC50 (Genome polyprotein): 12.2 µM (active)
IC50 [5]: 47.9 µM (inactive)
AC50 (Caspase-6): 0.0804 µM (active)
IC50 [6]: > 123 µM (inactive)
